In assay [1] the target is His6-TEV-PDGFRβ (557-1016) (Homo sapiens (Human), UniProt P09619). In words: PDGFRβ HTRF Assay. To be noted: read-out: PDGFR HTRF IC50. It is filed as biochemical. The method, boiled down: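 HTRF KinEASE-TK readout (665/620 nm ratio) of TK-biotin substrate phosphorylation by His-tagged PDGFRβ kinase domain. Enzyme and inhibitor preincubated 30 min, then ATP/substrate added for 3 h at room temperature before 60 min EDTA quench/detection.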
On the technique in general: TR-FRET usually uses a lanthanide donor and a delayed reading to cut background.

Assay [2] addresses Tb-labeled inactive PDGFRβ (Homo sapiens (Human), UniProt P09619). The assay is described as follows: PDGFRβ LanthaScreen Assay. The conditions noted are these: read-out: PDGFR Lantha IC50. Format: binding.
A further assay has as its target VEGFR2, unphosphorylated (Homo sapiens (Human), UniProt P35968). The assay is described as follows: VEGFR ADP GLO Assay. Format: biochemical. (In general: ADP-Glo turns the ADP formed in a reaction into a luminescent signal.)

Some results are limits rather than exact numbers.

Sequence of Tb-labeled inactive PDGFRβ (P09619 33-1106): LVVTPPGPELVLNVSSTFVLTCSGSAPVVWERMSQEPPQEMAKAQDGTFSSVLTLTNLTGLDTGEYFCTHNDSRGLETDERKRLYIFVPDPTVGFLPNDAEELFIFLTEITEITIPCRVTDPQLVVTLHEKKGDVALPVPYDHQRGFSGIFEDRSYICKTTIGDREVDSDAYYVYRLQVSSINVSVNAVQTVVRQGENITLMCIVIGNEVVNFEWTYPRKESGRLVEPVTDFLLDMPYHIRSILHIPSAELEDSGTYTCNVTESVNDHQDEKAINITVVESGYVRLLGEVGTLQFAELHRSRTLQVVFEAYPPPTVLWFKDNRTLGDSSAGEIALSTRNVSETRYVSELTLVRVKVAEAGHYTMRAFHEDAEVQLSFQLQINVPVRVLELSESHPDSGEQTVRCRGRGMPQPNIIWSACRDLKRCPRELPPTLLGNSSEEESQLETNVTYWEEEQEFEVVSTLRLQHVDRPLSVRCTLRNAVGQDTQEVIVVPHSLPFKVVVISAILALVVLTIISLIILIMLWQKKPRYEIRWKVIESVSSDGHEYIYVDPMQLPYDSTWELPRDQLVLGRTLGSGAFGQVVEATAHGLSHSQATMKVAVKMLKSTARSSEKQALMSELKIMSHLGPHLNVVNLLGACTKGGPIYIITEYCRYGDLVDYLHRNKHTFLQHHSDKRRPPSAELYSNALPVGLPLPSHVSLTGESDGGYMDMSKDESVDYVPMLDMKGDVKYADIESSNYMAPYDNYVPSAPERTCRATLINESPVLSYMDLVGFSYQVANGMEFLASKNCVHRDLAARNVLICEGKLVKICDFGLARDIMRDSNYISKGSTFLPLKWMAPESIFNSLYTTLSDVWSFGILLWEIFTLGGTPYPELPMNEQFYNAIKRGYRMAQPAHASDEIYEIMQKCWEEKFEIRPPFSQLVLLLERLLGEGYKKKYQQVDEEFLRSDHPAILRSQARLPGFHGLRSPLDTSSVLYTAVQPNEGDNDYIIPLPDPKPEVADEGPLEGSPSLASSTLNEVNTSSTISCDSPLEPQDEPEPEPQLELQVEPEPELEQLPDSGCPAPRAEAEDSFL
Sequence of His6-TEV-PDGFRβ (557-1016) (P09619 557-1016): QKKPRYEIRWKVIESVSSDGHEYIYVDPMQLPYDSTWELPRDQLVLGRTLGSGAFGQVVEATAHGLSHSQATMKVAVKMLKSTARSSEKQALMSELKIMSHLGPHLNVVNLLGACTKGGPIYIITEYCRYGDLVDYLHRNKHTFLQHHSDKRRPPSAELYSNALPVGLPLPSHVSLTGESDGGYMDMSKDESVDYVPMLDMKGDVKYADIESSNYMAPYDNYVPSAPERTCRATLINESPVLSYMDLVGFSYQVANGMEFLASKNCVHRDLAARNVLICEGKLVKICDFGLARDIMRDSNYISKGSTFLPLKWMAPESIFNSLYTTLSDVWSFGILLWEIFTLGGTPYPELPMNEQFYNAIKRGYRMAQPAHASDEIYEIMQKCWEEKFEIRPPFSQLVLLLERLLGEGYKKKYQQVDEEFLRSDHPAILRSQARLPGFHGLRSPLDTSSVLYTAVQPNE
Sequence of VEGFR2, unphosphorylated (P35968 20-1356): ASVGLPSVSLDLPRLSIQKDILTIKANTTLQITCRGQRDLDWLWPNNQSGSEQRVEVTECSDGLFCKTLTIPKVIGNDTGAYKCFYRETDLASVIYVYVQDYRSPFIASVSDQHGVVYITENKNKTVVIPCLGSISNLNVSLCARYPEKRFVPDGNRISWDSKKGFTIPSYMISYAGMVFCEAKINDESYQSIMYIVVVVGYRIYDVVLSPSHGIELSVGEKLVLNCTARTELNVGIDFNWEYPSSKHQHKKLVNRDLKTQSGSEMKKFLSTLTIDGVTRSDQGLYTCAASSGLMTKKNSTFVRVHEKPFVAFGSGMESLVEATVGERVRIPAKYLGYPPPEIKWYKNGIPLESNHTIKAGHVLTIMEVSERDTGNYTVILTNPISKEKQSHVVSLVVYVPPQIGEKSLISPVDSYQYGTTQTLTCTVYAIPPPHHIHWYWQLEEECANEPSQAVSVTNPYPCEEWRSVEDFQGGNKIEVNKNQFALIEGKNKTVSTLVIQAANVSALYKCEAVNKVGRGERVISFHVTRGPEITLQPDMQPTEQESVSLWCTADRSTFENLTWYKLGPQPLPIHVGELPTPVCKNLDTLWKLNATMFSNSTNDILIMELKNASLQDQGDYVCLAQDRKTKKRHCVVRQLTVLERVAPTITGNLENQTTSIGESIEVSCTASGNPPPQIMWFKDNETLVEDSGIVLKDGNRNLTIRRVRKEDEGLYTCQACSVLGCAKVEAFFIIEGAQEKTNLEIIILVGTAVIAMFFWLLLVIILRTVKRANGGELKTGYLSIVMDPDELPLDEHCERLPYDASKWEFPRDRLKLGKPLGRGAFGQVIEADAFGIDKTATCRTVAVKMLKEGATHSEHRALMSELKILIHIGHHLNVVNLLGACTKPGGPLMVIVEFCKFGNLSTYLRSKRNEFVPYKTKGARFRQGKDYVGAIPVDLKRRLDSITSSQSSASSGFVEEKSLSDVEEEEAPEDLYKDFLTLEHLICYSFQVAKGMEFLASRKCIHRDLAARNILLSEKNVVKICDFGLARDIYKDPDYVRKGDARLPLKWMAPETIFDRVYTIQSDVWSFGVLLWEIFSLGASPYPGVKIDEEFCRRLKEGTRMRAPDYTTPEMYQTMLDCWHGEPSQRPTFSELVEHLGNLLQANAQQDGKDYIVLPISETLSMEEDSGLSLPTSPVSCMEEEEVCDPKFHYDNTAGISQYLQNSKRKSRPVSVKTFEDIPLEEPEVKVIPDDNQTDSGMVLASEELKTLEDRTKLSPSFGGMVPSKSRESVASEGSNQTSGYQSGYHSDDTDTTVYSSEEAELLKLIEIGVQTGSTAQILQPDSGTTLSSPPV

As to `COC/C=C/c1cn2ncc(C(=O)Nc3cc(NC(=O)CN4C[C@H](C)O[C@@H](C)C4)cnc3C)c2s1` (relative stereo) [Example 367, N-(5-(2-(trans-2,6-dimethylmorpholino)acetamido)-2-methylpyridin-3-yl)-2-((E)-3-methoxyprop-1-en-1-yl)pyrazolo[5,1-b]thiazole-7-carboxamide], the IC50 in assay [1] is 1.8 nM; in assay [2], 17.3 nM; against VEGFR2, unphosphorylated, more than 7500 nM.
The corresponding values for `COc1ncccc1-c1cn2ncc(C(=O)Nc3cc(NC(=O)CN4C[C@H](C)O[C@@H](C)C4)cnc3C)c2s1` (relative stereo) [Example 368, N-(5-(2-(trans-2,6-dimethylmorpholino)acetamido)-2-methylpyridin-3-yl)-2-(2-methoxypyridin-3-yl)pyrazolo[5,1-b]thiazole-7-carboxamide] are 0.3 nM, 2.4 nM and more than 7500 nM.
Taken in the same sequence, the figures for `Cc1ncc(NC(=O)CN2C[C@H](C)O[C@@H](C)C2)cc1NC(=O)c1cnn2cc(-c3c[nH]nc3C)sc12` (relative stereo) [Example 371, N-(5-(2-(trans-2,6-dimethylmorpholino)acetamido)-2-methylpyridin-3-yl)-2-(3-methyl-1H-pyrazol-4-yl)pyrazolo[5,1-b]thiazole-7-carboxamide] were 0.4 nM, 3 nM and more than 2500 nM.
For `Cc1ncc(NC(=O)CN2C[C@H](C)O[C@@H](C)C2)cc1NC(=O)c1cnn2cc(-c3cnc(N)c(F)c3)sc12` (relative stereo) [Example 372, 2-(6-amino-5-fluoropyridin-3-yl)-N-(5-(2-(trans-2,6-dimethylmorpholino)acetamido)-2-methylpyridin-3-yl)pyrazolo[5,1-b]thiazole-7-carboxamide], the 50% inhibitory concentration (IC50) in assay [1] was 0.6 nM; in assay [2], 7.7 nM; on VEGFR2, unphosphorylated, more than 2500 nM.
Taken in the same sequence, the figures for `Cc1ncc(NC(=O)CN2C[C@H](C)O[C@@H](C)C2)cc1NC(=O)c1cnn2cc(-c3c(C)n[nH]c3C)sc12` (relative stereo) [Example 373, 2-(3,5-dimethyl-1H-pyrazol-4-yl)-N-(5-(2-(trans-2,6-dimethylmorpholino)acetamido)-2-methylpyridin-3-yl)pyrazolo[5,1-b]thiazole-7-carboxamide] were 1.3 nM, 7 nM and more than 7500 nM.
Turning to `Cc1ncc(NC(=O)CN2C[C@H](C)O[C@@H](C)C2)cc1NC(=O)c1cnn2cc(-c3cc[nH]n3)sc12` (relative stereo) [Example 374, N-(5-(2-(trans-2,6-dimethylmorpholino)acetamido)-2-methylpyridin-3-yl)-2-(1H-pyrazol-3-yl)pyrazolo[5,1-b]thiazole-7-carboxamide], the IC50 in assay [1] is 0.4 nM; in assay [2], 4 nM; at VEGFR2, unphosphorylated, more than 7500 nM.
The corresponding values for `Cc1ncc(NC(=O)CN2C[C@H](C)O[C@@H](C)C2)cc1NC(=O)c1cnn2cc(-c3cnn4c3OCCC4)sc12` (relative stereo) [Example 375, 2-(6,7-dihydro-5H-pyrazolo[5,1-b][1,3]oxazin-3-yl)-N-(5-(2-(trans-2,6-dimethylmorpholino)acetamido)-2-methylpyridin-3-yl)pyrazolo[5,1-b]thiazole-7-carboxamide] are 0.6 nM, 4.5 nM and more than 833 nM.
The corresponding values for `Cc1ncc(NC(=O)CN2C[C@@H](CO)O[C@@H](C)C2)cc1NC(=O)c1cnn2cc(-c3cnn(C)c3)sc12` (relative stereo) [Example 378, N-(5-(2-(cis-2-(hydroxymethyl)-6-methylmorpholino)acetamido)-2-methylpyridin-3-yl)-2-(1-methyl-1H-pyrazol-4-yl)pyrazolo[5,1-b]thiazole-7-carboxamide] are 0.8 nM, 10.2 nM and more than 2500 nM.
Taken in the same sequence, the figures for `Cc1ncc(NC(=O)CN2C[C@H](C)O[C@@H](C)C2)cc1NC(=O)c1cnn2cc(-c3cnn(C4CC4)c3)sc12` (relative stereo) [Example 382, 2-(1-cyclopropyl-1H-pyrazol-4-yl)-N-(5-(2-(trans-2,6-dimethylmorpholino)acetamido)-2-methylpyridin-3-yl)pyrazolo[5,1-b]thiazole-7-carboxamide] were 0.6 nM, 5.3 nM and more than 2500 nM.
Regarding `COc1ncccc1-c1cn2ncc(C(=O)Nc3cc(NC(=O)CN4C[C@H](C)O[C@@H](C)C4)cnc3C)c2s1` (relative stereo) [Example 384, N-(5-(2-(trans-2,6-dimethylmorpholino)acetamido)-2-methylpyridin-3-yl)-2-(2-methoxypyridin-3-yl)pyrazolo[5,1-b]thiazole-7-carboxamide], the IC50 in assay [1] is 0.4 nM; in assay [2], 2.3 nM; at VEGFR2, unphosphorylated, more than 833 nM.
The corresponding values for `COc1ccncc1-c1cn2ncc(C(=O)Nc3cc(NC(=O)CN4C[C@H](C)O[C@@H](C)C4)cnc3C)c2s1` (relative stereo) [Example 385, N-(5-(2-(trans-2,6-dimethylmorpholino)acetamido)-2-methylpyridin-3-yl)-2-(4-methoxypyridin-3-yl)pyrazolo[5,1-b]thiazole-7-carboxamide] are 0.8 nM, 4.9 nM and more than 833 nM.
For `COc1cccc(-c2cn3ncc(C(=O)Nc4cc(NC(=O)CN5C[C@H](C)O[C@@H](C)C5)cnc4C)c3s2)n1` (relative stereo) [Example 386, N-(5-(2-(trans-2,6-dimethylmorpholino)acetamido)-2-methylpyridin-3-yl)-2-(6-methoxypyridin-2-yl)pyrazolo[5,1-b]thiazole-7-carboxamide], the IC50 is 0.4 nM in assay [1]; 2.5 nM in assay [2]; more than 833 nM on VEGFR2, unphosphorylated.
Consider `Cc1ncc(NC(=O)CN2CCC[C@H]2C)cc1NC(=O)c1cnn2cc(-c3cnn(C)c3)sc12` [Example 26, (R)-2-(1-methyl-1H-pyrazol-4-yl)-N-(2-methyl-5-(2-(2-methyl-pyrrolidin-1-yl)acetamido)pyridin-3-yl)pyrazolo[5,1-b]thiazole-7-carboxamide], for which the 50% inhibitory concentration (IC50) in assay [1] was 0.8 nM; in assay [2], 11.7 nM; on VEGFR2, unphosphorylated, more than 7500 nM.
Taken in the same sequence, the figures for `Cc1ncc(NC(=O)CN2CCC[C@@H]2C)cc1NC(=O)c1cnn2cc(-c3cnn(C)c3)sc12` [Example 27, (S)-2-(1-methyl-1H-pyrazol-4-yl)-N-(2-methyl-5-(2-(2-methyl-pyrrolidin-1-yl)acetamido)pyridin-3-yl)pyrazolo[5,1-b]thiazole-7-carboxamide] were 0.9 nM, 16.2 nM and more than 7500 nM.
Taken in the same sequence, the figures for `Cc1ncc(NC(=O)CN2CCC(C)(C)C2)cc1NC(=O)c1cnn2cc(-c3cnn(CCO)c3)sc12` [Example 28, N-(5-(2-(3,3-dimethylpyrrolidin-1-yl)acetamido)-2-methylpyridin-3-yl)-2-(1-(2-hydroxyethyl)-1H-pyrazol-4-yl)pyrazolo[5,1-b]thiazole-7-carboxamide] were 0.6 nM, 4.2 nM and more than 7500 nM.

As usually defined, the IC50 is the point on the concentration scale where inhibition reaches its midpoint.

Source of the values: patent US20240109917A1 (ACTELION PHARMACEUTICALS LTD, priority 2020, published 2024).
